A short description of one data set: Acute toxicity test. Conditions: for LD50 at 336 h / General Status: mouse, in vivo; for LD50 at 336 h: ICR male mice, 14 days, read-out: LD50/14 (50% death rate over 14 days). It counts as in vivo. The protocol:
Acute toxicity test and other tests regarding radiosensitising ability and antiviral activity were carried out using the compounds of the present invention.
ICR strain male mice of 5 week old were intravenously or intraperitoneally administered with various compounds each dissolved in a physiological saline or in a physiological saline containing 10% DMSO. The mice were observed over 14 days and 50% death rates (LD50/14) were obtained.

For a further data set, the system named is single cells of EMT-6. As to the kind of experiment: Radiosensitivity test, in vitro test 1 (single cells of EMT-6, hypoxic). The class given is cell-based. Conditions: 1.0 mM, single EMT-6 cells, 60Co gamma rays. From the text:
Cells used in the test: single cells of EMT-6
Irradiation: ^60 Co - gamma rays
Cell treatment to hypoxia:
A mixture gas of 95% nitrogen and 5% carbon dioxide was passed through cell suspension.
Determined by counting colonies.
Radiosensitivity enhancement ratio (ER): [formula]

For data set [1], the system named is Herpes simplex virus type I. The experiment in a line: Antiviral activity test (cytopathic effect in Vero cells). It counts as cell-based. Further details: key: 0: almost all cells are dead; 1: certain effect of test agent with some dead cells; 2: normal. Conditions: one day. The method, then: (3) Antiviral activity test Virus: Herpes simplex virus type I Cells: Vero (monkey kidney cells) Culture medium: 2% FBS MEM A sample conditioned to contain 2×10^5 /ml of vero cells was cultured at 37° C. in an atmosphere of 5% CO2 for 1 day to obtain a monolayer sample. The sample was infected by HSV virus diluted with PBS (phosphate buffer). Compound (I) was dissolved in DMSO, then adjusted to have concentrations of 100 μg/ml, 50 μg/ml, 10/μg/ml,5,μ/ml and 1 μg/ml by 2% FBS MEM, and served as test agents. The culture cells were added with each agent separately and incubated at 37° C. in a Co2 incubator for one day. The cytopathic effect was observed under microscope. Cells were stained by crystal violet and scored as follows: 0: almost all cells are dead 1: certain effect of test agent with some dead cells 2: normal The results are shown in Table 3.
(Cytopathic effects are the visible damage that an infection or toxin causes in cultured cells.)

In another data set the test system is EMT-6 tumor. As to the kind of experiment: Radiosensitivity in vivo test (EMT-6 tumor). Conditions: 200 mg/kg intraperitoneal 20 minutes prior to whole body 60Co irradiation. On the set-up: species or system Balb/c mice. The protocol: Tested compound: compound (3), 200 mg/kg
Compound (3) dissolved in a physiological saline was intraperitoneally administered 20 minutes prior to irradiation.
Irradiation: ^60 Co - gamma rays, whole body irradiation
Determination of radiosensitivity enhancement:
Enhancement ratio (ER) was obtained from irradiation dose and reduction ratio of tumor cells.

In a further data set the test system is Spheroids of EMT-6. The experiment in a line: Radiosensitivity test, in vitro test 2 (spheroids of EMT-6). The class given is cell-based. Conditions: 1 mM, 37° C. over 30 to 60 minutes, 60Co gamma rays. The method, then:
(b) In vitro test 2 Cells used in the test: Spheroids of EMT-6 Irradiation: ^60 Co - gamma rays Tested compound: Compound (3), 1 mM Determination of radiosensitivity enhancement: Six particles of spheroid having a certain size were taken and placed in a culture solution containing compound (3) having a concentration of 1 mM, and incubated at 37° C. over 30 to 60 minutes, followed by irradiation. The spheroids were treated by trypsin and then the enhancement ratio (ER) was obtained by counting colonies.

Where two headings read alike, the source gives them in different places.

Take `CC(=O)OCC(COC(C)=O)OCn1cnc([N+](=O)[O-])n1` [(2), 1-[2-acetoxy-1-(acetoxymethyl)ethoxy]methyl-3-nitro-1,2,4-triazol]: the Dead/Treated in “Acute toxicity test” (intraperitoneal, 600 mg/kg) is reported as 0/2; in the data set “Acute toxicity test” (intraperitoneal, 720 mg/kg), 0/2; in the data set “Acute toxicity test” (intraperitoneal, 860 mg/kg), 2/2. In addition, in the data set “Acute toxicity test” (ip, intraperitoneal), the LD50 at 336 h stood at 790 mg/kg.

As for `O=[N+]([O-])c1ncn(COC(CO)CO)n1` [(4), 1-[2-hydroxy-1-(hydroxymethyl)ethoxy]methyl-3-nitro-1,2,4-triazol], the “Radiosensitivity enhancement ratio (ER)” value in the data set with single cells of EMT-6 is 1.50. For the same compound, the Dead/Treated in “Acute toxicity test” (intravenous, 720 mg/kg) was 0/2; in “Acute toxicity test” (intravenous, 860 mg/kg), 1/2. In the data set “Acute toxicity test” (iv), the “General Status” value is listed as “Calmed down”. Further, the LD50 at 336 h in the data set “Acute toxicity test” (intravenous) came to 860 mg/kg. Further, the cytopathic effect score in data set [1] (1 μg/ml) came to 0; in data set [1] (5 μg/ml), 0; in data set [1] (10 μg/ml), 1; in data set [1] (50 μg/ml), 2; in data set [1] (100 μg/ml), 2.

As to `CC(=O)OCC(COC(C)=O)OCn1ccnc1[N+](=O)[O-]` [(1), 1-[2-acetoxy-1-(acetoxymethyl)ethoxy]methyl-2-nitroimidazol], the Dead/Treated in the data set “Acute toxicity test” (intraperitoneal, 720 mg/kg) is 0/2; in “Acute toxicity test” (intraperitoneal, 860 mg/kg), 0/2. Also, the “General Status” value in the data set “Acute toxicity test” (ip) is recorded as “Calmed down”. In addition, the LD50 at 336 h in “Acute toxicity test” (ip, intraperitoneal) is more than 860 mg/kg.

For `O=[N+]([O-])c1nccn1COC(CO)CO` [Compound (3), 1-[2-hydroxy-1-(hydroxymethyl)ethoxy]methyl-2-nitroimidazol], the “Radiosensitivity enhancement ratio (ER)” value with single cells of EMT-6 amounted to 1.70. For the same compound, the “enhancement ratio (ER)” value in the data set on EMT-6 tumor and with Spheroids of EMT-6 was 1.55 each time. In addition, the Dead/Treated in the data set “Acute toxicity test” (intravenous, 720 mg/kg) was 0/2; in the data set “Acute toxicity test” (intravenous, 860 mg/kg), 0/2. Besides, the “General Status” value in the data set “Acute toxicity test” (iv) is on record as “Calmed down”. Also, the LD50 at 336 h in the data set “Acute toxicity test” (intravenous) is more than 860 mg/kg. In addition, the cytopathic effect score is 0 in data set [1] (1 μg/ml); 0 in data set [1] (5 μg/ml); 1 in data set [1] (10 μg/ml); 2 in data set [1] (50 μg/ml); 2 in data set [1] (100 μg/ml).
